Test results published in PMC4724521 (Phytochemistry, 2015).

Experiments:
K. brevis EH = assay: Inhibition assay of purified EH with fluorescent substrate 5b; type: biochemical, Karenia brevis; settings: substrate 5b 100 μM, EH 0.1 mg/ml, 2 min preincubation, pH 7.0, 30 °C
[1] = tested on: EH activity of K. brevis CFE
[2] = target: Rhodococcus erythropolis LEH; settings: ref Arand et al., 2003; cited from earlier work

C[C@H]1O[C@@H]1c1ccccc1 (relative stereo) [trans-β-methylstyrene oxide-, trans-β-methylstyrene oxide]
IC50 (K. brevis EH): 14.3 mM

CC1OC1c1ccccc1 (stereo not drawn) [cis-β-methylstyrene oxide]
IC50 (K. brevis EH): 3.05 mM

CCCC(CCC)C(N)=O [valpromide 8, valpromide]
inhibition of total EH activity (in words) [1]: only adamantly urea 7 inhibited the total activity
Ki [2]: 0.1 mM

CC1(C)OC1c1ccccc1 (stereo not drawn) [β-dimethylstyrene oxide]
IC50 (K. brevis EH): 6.99 mM
